For 20 compounds, Ki results are on record in US10287269B2, “Pyrazolyl pyrimidinone compounds as PDE2 inhibitors” (Merck Sharp & Dohme Corp., priority 2015, dated 2019).

Molecules are shown by their SMILES.

T1 sequence (O00408 1-920 isoform O00408-2): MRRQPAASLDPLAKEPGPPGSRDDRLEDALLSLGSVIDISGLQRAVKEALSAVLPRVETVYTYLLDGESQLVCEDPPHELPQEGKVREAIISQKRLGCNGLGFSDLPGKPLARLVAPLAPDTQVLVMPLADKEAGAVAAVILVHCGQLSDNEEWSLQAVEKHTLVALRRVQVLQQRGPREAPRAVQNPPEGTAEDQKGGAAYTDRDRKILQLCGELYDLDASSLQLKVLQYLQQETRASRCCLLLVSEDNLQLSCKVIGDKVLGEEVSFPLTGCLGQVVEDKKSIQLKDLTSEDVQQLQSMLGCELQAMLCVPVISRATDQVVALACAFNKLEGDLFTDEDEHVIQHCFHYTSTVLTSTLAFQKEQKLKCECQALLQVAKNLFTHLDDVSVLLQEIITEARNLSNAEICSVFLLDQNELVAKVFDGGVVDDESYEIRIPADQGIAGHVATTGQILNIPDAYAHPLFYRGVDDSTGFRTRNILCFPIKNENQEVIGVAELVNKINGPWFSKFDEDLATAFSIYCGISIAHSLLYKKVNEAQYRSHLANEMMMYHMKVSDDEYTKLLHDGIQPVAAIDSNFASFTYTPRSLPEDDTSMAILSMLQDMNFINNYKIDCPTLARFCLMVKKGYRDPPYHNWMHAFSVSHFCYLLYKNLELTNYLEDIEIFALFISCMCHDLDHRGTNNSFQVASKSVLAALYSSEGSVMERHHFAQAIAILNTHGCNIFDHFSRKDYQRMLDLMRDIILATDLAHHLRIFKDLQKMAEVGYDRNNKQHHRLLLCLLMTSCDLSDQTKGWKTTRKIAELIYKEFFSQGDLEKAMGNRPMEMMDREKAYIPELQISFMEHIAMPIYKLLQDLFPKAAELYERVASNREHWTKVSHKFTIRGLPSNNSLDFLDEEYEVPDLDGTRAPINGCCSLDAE

One experiment concerns the target T1, human PDE2A1 (Homo sapiens, UniProt O00408).
T1 construct: GST; purchased BPS Bioscience (San Diego, Calif.) 60020; host or cells: insect cells
Nature of the experiment: PDE2 IMAP FP inhibition assay, human enzyme (PDE selectivity panel format). The format is biochemical. As to conditions: Lab A; read-out: Human PDE2 Ki (nM) Lab A. The procedure:
Selectivity for PDE2, as compared to other PDE families, was assessed using the IMAP® technology. Human PDE10A2 enzyme was prepared from cytosolic fractions of transiently transfected HEK cells. All other PDE's were GST Tag human enzyme expressed in insect cells and were obtained from BPS Bioscience (San Diego, Calif.): PDE1A (Cat#60010), human PDE2A1 (Cat#60020), PDE3A (Cat#60030), PDE4A1A (Cat#60040), PDE5A1 (Cat#60050), PDE6C (Cat#60060), PDE7A (Cat#60070), PDE8A1 (Cat#60080), PDE9A2 (Cat#60090), PDE11A4 (Cat#60110).
Assays for PDE 1 through 11 were performed in parallel at room temperature in 384-well microtiter plates with an incubation volume of 20.2 μL. Solutions of test compounds were prepared in DMSO and serially diluted with DMSO to yield 30 μL of each of ten solutions differing by 3-fold in concentration, at 32 serial dilutions per plate. […] A Labcyte POD 810 (Labcyte, Sunnyvale, Calif.) was used to dispense 200 nL from each well of the titration plate to make eleven copies of the assay plate for each titration, one copy for each PDE enzyme. A solution of each enzyme (dilution from aliquots, sufficient to produce 20% substrate conversion) and a separate solution of FAM-labeled cAMP or FAM-labeled cGMP from Molecular Devices (Sunnyvale, Calif., product # R7506 or cGMP#R7508), at a final concentration of 50 nM were made in the assay buffer (10 mM Tris HCl, pH 7.2, 10 mM MgCl2, 0.05% NaN3 0.01% Tween-20, and 1 mM DTT). Note that the substrate for PDE2 is 50 nM FAM cAMP containing 1000 nM of cGMP. The enzyme and the substrate were then added to the assay plates in two consecutive additions of 10 μL and then shaken to mix. The reaction was allowed to proceed at room temperature for 60 minutes. A binding solution was then made from the kit components, comprised of 80% Solution A, 20% Solution B and binding reagent at a volume of 1/600 the total binding solution. The enzymatic reaction was stopped by addition of 60 μL of the binding solution to each well of the assay plate. The plates were sealed and shaken for 10 seconds. The plates were incubated at room temperature for one hour, then the parallel and perpendicular fluorescence was measured using a Tecan Genios Pro plate reader (Tecan, Switzerland). The apparent inhibition constants for the compounds against all 11 PDE's was determined from the parallel and perpendicular fluorescent readings as described for PDE10 FP assay using the following apparent KM values for each enzyme and substrate combination: PDE1A (FAM cGMP) 70 nM, human PDE2A1 (FAM cAMP) 10,000 nM, PDE3A (FAM cAMP) 50 nM, PDE4A1A (FAM cAMP) 1500 nM, PDE5A1 (FAM cGMP) 400 nM, PDE6C (FAM cGMP) 700 nM, PDE7A (FAM cAMP) 150 nM, PDE8A1 (FAM cAMP) 50 nM, PDE9A2 (FAM cGMP) 60 nM, PDE10A2 (FAM cAMP) 150 nM, PDE11A4 (FAM cAMP) 1000 nM. The intrinsic PDE2 inhibitory activity of a compound which may be used in accordance with the present invention may be determined by these assays. […]
What is called Ki is the equilibrium dissociation constant of an inhibitor or competing ligand from its target. Take `Cc1nc(-c2cnn([C@H](C)c3c(F)cc(C(F)(F)F)cc3F)c2)cc(=O)[nH]1` (single isomer, unassigned) [Example 7]: the Ki is 126 nM. On to `CCc1ccc(C(CO)c2cnn(-c3cc(=O)[nH]c(C)n3)c2)c(Cl)c1` (single isomer, unassigned) [Example 121, (S)- or (R)-6-(4-(1-(2-chloro-4-ethylphenyl)-2-hydroxyethyl)-1H-pyrazol-1-yl)-2-methylpyrimidin-4(3H)-one], for which the Ki amounted to 8.4 nM. On the same count and under the same terms, the result for `CCc1ccc([C@](C)(O)c2cnn(-c3cc(=O)[nH]c(C)n3)c2)c(F)c1` (single isomer, unassigned) [Example 11] reads 42.5 nM. The same measure, in the same setting: under `CCc1ccc(C(CO)c2cnn(-c3cc(=O)[nH]c(C)n3)c2)c(F)c1` (single isomer, unassigned) [Example 116, (S)- or (R)-6-(4-(1-(4-ethyl-2-fluorophenyl)-2-hydroxyethyl)-1H-pyrazol-1-yl)-2-methylpyrimidin-4(3H)-one] stands 537 nM; under `Cc1nc(-c2cn(C(C)c3ccc(C(F)(F)F)cc3F)nc2C)cc(=O)[nH]1` (single isomer, unassigned) [Example 70, (S)- or (R)-(6-(1-(1-(2-fluoro-4-(trifluoromethyl)phenyl)ethyl)-3-methyl-1H-pyrazol-4-yl)-2-methylpyrimidin-4(3H)-one], 312 nM; under `Cc1nc(-c2cnn(C(CO)c3ccc(C(F)(F)F)cc3F)c2)cc(=O)[nH]1` (single isomer, unassigned) [Example 109, (R)- or (S)-6-(1-(1-(2-fluoro-4-(trifluoromethyl)phenyl)-2-hydroxyethyl)-1H-pyrazol-4-yl)-2-methylpyrimidin-4(3H)-one], 27.5 nM. Turning to `Cc1nc(-c2cnn(C(C)c3ccc(C(F)(F)F)cc3F)c2C)cc(=O)[nH]1` (single isomer, unassigned) [Example 71, (R)- or (S)-6-(1-(1-(2-fluoro-4-(trifluoromethyl)phenyl)ethyl)-5-methyl-1H-pyrazol-4-yl)-2-methylpyrimidin-4(3H)-one], the Ki worked out at 16.5 nM. The same measure, in the same setting: the result for `CCc1ccc(C(CO)c2cnn(-c3cc(=O)[nH]c(C)n3)c2)c(F)c1` (single isomer, unassigned) [Example 115, (R)- or (S)-6-(4-(1-(4-ethyl-2-fluorophenyl)-2-hydroxyethyl)-1H-pyrazol-1-yl)-2-methylpyrimidin-4(3H)-one] reads 163 nM. Still for that read-out and setting: the result for `CCCc1ccc([C@](C)(O)c2cnn(-c3cc(=O)[nH]c(C)n3)c2)c(F)c1` (single isomer, unassigned) [Example 13] reads 287 nM; that for `CCc1ccc([C@@H](CO)n2cc(-c3cc(=O)[nH]c(C)n3)cn2)c(Cl)c1` (single isomer, unassigned) [Example 18], 10.7 nM. Regarding `Cc1nc(-n2cc(C(C)(O)c3ccc(C(F)(F)F)cc3Cl)cn2)cc(=O)[nH]1` (single isomer, unassigned) [Example 117, (R)- or (S)-6-(4-(1-(2-chloro-4-(trifluoromethyl)phenyl)-1-hydroxyethyl)-1H-pyrazol-1-yl)-2-methylpyrimidin-4(3H)-one], the Ki came to 4.4 nM. Same read-out and setting: the result for `COC(=O)C(c1ccc(C(F)(F)F)cc1F)n1cc(-c2cc(=O)[nH]c(C)n2)cn1` (stereo not drawn) [Example 113, methyl 2-(2-fluoro-4-(trifluoromethyl)phenyl)-2-(4-(2-methyl-6-oxo-1,6-dihydropyrimidin-4-yl)-1H-pyrazol-1-yl)acetate] reads 1970 nM; that for `Cc1nc(-c2cnn(C(C)c3ccc(C4CC4)cc3Cl)c2)cc(=O)[nH]1` (single isomer, unassigned) [Example 108, (S)- or (R)-6-(1-(1-(2-chloro-4-cyclopropylphenyl)ethyl)-1H-pyrazol-4-yl)-2-methylpyrimidin-4(3H)-one], 358 nM; that for `Cc1nc(-c2cnn(C(C)c3ccc(CC(F)(F)F)cc3C)c2)cc(=O)[nH]1` (single isomer, unassigned) [Example 105, (R)- or (S)-2-methyl-6-(1-(1-(2-methyl-4-(2,2,2-trifluoroethyl)phenyl)ethyl)-1H-pyrazol-4-yl)pyrimidin-4(3H)-one], more than 2960 nM. On the same count and under the same terms, the result for `CCc1ccc(C(C)(O)c2cnn(-c3cc(=O)[nH]c(C)n3)c2)c(Cl)c1` (stereo not drawn) [Example 119, 6-(4-(1-(2-chloro-4-ethylphenyl)-1-hydroxyethyl)-1H-pyrazol-1-yl)-2-methylpyrimidin-4(3H)-one] reads 16.7 nM; that for `CCc1ccc(C(C(=O)OC)n2cc(-c3cc(=O)[nH]c(C)n3)cn2)c(Cl)c1` (stereo not drawn) [Example 114, methyl 2-(2-chloro-4-ethylphenyl)-2-(4-(2-methyl-6-oxo-1,6-dihydropyrimidin-4-yl)-1H-pyrazol-1-yl)acetate], 1820 nM.

The next experiment addresses T2, Rhesus PDE2A3 (Macaca mulatta, UniProt B3VTJ2).
T2 construct: made in house; host or cells: AD293 cells, transient transfection, pcDNA3.3-TOPO; lysate supernatant used as enzyme
T2 sequence (B3VTJ2 1-941): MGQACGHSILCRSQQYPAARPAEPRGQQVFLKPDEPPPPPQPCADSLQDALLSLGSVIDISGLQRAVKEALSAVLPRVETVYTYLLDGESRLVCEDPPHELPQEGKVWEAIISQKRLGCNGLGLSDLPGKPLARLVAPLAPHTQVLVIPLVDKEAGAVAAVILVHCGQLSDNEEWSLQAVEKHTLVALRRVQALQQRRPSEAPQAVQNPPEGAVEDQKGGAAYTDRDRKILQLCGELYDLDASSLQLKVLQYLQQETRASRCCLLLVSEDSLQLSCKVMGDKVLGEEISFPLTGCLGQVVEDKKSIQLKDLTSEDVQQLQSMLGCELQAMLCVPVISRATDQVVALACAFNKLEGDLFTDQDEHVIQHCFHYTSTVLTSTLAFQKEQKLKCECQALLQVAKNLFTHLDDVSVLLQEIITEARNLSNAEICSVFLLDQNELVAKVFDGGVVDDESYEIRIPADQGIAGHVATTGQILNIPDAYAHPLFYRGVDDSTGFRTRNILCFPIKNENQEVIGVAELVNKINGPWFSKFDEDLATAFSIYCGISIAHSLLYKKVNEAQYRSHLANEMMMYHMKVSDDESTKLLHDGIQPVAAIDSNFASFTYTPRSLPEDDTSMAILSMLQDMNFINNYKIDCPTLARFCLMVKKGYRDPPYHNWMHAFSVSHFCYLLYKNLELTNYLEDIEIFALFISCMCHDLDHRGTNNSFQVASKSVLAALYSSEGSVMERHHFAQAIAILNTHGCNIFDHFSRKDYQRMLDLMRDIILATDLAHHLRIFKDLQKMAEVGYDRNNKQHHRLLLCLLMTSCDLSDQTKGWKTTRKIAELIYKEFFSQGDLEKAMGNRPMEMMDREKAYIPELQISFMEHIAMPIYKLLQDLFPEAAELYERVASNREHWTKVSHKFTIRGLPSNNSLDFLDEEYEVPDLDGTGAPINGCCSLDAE
The experiment in a line: PDE2 fluorescence polarization (IMAP FP) inhibition assay, rhesus enzyme. The format is biochemical, rhesus macaque. The note with it: Lab A; read-out: Rhesus PDE2 Ki (nM) Lab A. The essentials:
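Lysate of AD293 cells transiently expressing rhesus PDE2A3, diluted for ~20% substrate conversion, with 50 nM FAM-cAMP and 1 uM cGMP activator in pH 7.2 Tris/MgCl2 buffer, 60 min at room temperature.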
In general terms: In fluorescence polarisation assays a small probe gives low polarisation when free and higher when bound to something large.
Take `Cc1nc(-c2cnn(C(C)C3CCOCC3)c2)cc(=O)[nH]1` (stereo not drawn) [Example 68, 2-methyl-6-(1-(1-(tetrahydro-2H-pyran-4-yl)ethyl)-1H-pyrazol-4-yl)pyrimidin-4(3H)-one]: the Ki was 30100 nM.

Still in this experiment, the particulars now being: Lab B; read-out: Rhesus PDE2 Ki (nM) Lab B.
For the compound `Cc1nc(-c2cnn(C(C)C3CCOCC3)c2)cc(=O)[nH]1` (stereo not drawn) [Example 68, 2-methyl-6-(1-(1-(tetrahydro-2H-pyran-4-yl)ethyl)-1H-pyrazol-4-yl)pyrimidin-4(3H)-one], the Ki is 40100 nM. On to `Cc1nc(-c2cc(C(C)c3ccc(C(F)(F)F)cc3)nn2C)cc(=O)[nH]1` (single isomer, unassigned) [Example 132, (S)- or (R)-2-methyl-6-(1-methyl-3-(1-(4-(trifluoromethyl)phenyl)ethyl)-1H-pyrazol-5-yl)pyrimidin-4(3H)-one], for which the Ki was more than 1000 nM. On the same count and under the same terms, under `Cc1ccc(C(C)n2ccc(-c3cc(=O)[nH]c(C)n3)n2)cc1` (stereo not drawn) [Example 157, 2-methyl-6-(1-(1-(p-tolyl)ethyl)-1H-pyrazol-3-yl)pyrimidin-4(3H)-one] stands 48700 nM; under `Cc1nc(-n2cc(C(C)c3ccncc3)cn2)cc(=O)[nH]1` (stereo not drawn) [Example 54, 2-methyl-6-[4-(1-pyridin-4-ylethyl)-1H-pyrazol-1-yl]pyrimidin-4(3H)-one], 18200 nM.
